The OPERA property sets (Mansouri et al. 2018)

Q: For `CC1(C)C(=O)N(Cl)C(=O)N1Cl`, which melting point is on record?
A: 132 °C

Q: With `OCC(Cc1ccccc1)c1ccccc1` (stereo not drawn) as the compound, how does the boiling point read?
A: 310 °C

Q: And the melting point?
A: 51 °C

Q: With `Nc1ccccc1C(F)(F)F` as the compound, how does the boiling point read?
A: 187 °C

Q: What about the melting point of the same compound?
A: 35.5 °C

Q: With `N#CC1(N=NC2(C#N)CCCCC2)CCCCC1` as the compound, how does the melting point read?
A: 116 °C

Q: Which results are given for `Oc1ccc(Cl)cc1Cc1ccccc1`?
A: log10 vapour pressure (mmHg): -5.85; melting point: 48.5 °C; ready biodegradability: readily biodegradable

Q: With `c1ccc([Se][Se]c2ccccc2)cc1` as the compound, how does the melting point read?
A: 63.5 °C

Q: With `c1ccc(N2CN(c3ccccc3)CN(c3ccccc3)C2)cc1` as the compound, how does the melting point read?
A: 144 °C

Q: Which boiling point does the source give for `C=CCSSCC=C` here?
A: 188 °C

Q: For `FC(F)(F)CS`, which boiling point is on record?
A: 34.5 °C

Q: For `C=C(C)C1CCC(C)(O)CC1` (stereo not drawn), which boiling point is on record?
A: 210 °C

Q: And the melting point?
A: 32.5 °C

Q: For `Clc1cc(Cl)c2c(oc3ccc(Cl)c(Cl)c32)c1Cl`, which melting point is on record?
A: 210 °C

Q: Which melting point does the source give for `Oc1ccccc1-c1nnco1` here?
A: 112 °C

Q: Which boiling point does the source give for `CCCCOC(=O)CCCCCCCCC(=O)OCCCC` here?
A: 344 °C

Q: What about the log10 vapour pressure (mmHg) of the same compound?
A: -5.33

Q: And the melting point?
A: -10 °C

Q: What does the source list for `CN=NC`?
A: boiling point: 1.5 °C; melting point: -78 °C

Q: What does the source list for `CCCCCC(C)C`?
A: boiling point: 118 °C; log10 biodegradation half-life (days): 0.477; log10 vapour pressure (mmHg): 1.32; melting point: -109 °C

Q: Which boiling point does the source give for `Cc1cc(C)c(C)s1` here?
A: 164 °C

Q: For `CCOc1ccccc1C`, which boiling point is on record?
A: 184 °C

Q: Which melting point does the source give for `C[C@]12CC[C@H]3[C@@H](CCC4=CC(=O)CC[C@@]43C)[C@@H]1CC[C@@H]2C(=O)CO` here?
A: 142 °C

Q: Which results are given for `Fc1ccccc1F`?
A: boiling point: 94 °C; log10 vapour pressure (mmHg): 1.73; melting point: -34 °C; ready biodegradability: not readily biodegradable

Q: Which results are given for `c1ccc2sc(SSc3nc4ccccc4s3)nc2c1`?
A: melting point: 180 °C; ready biodegradability: not readily biodegradable

Q: For `O=C(O)C(F)(F)C(F)(F)C(F)(F)C(F)(F)C(F)(F)C(F)(F)C(F)(F)C(F)(F)C(F)(F)C(F)(F)C(F)(F)C(F)(F)C(F)(F)F`, which ready biodegradability is on record?
A: not readily biodegradable

Q: Which ready biodegradability does the source give for `CCCCCCCCCCCCCCCCCCCCCC(N)=O` here?
A: not readily biodegradable

Q: Which boiling point does the source give for `O=C1OC(=O)c2cc(Cl)c(Cl)cc21` here?
A: 313 °C

Q: What about the melting point of the same compound?
A: 188 °C

Q: Which results are given for `Nc1ccc2ccccc2c1S(=O)(=O)O`?
A: melting point: 180 °C; ready biodegradability: not readily biodegradable

Q: With `C[Si](C)(C)Cc1ccccc1` as the compound, how does the boiling point read?
A: 190 °C

Q: Which boiling point does the source give for `C=C1CCCC1` here?
A: 75.5 °C

Q: Which melting point does the source give for `CC(C)(Oc1ccc(Cl)cc1)C(=O)OCCCOC(=O)C(C)(C)Oc1ccc(Cl)cc1` here?
A: 52 °C

Q: With `CCCCCc1ccc2c(c1)C(=O)c1ccccc1C2=O` as the compound, how does the ready biodegradability read?
A: not readily biodegradable

Q: Which results are given for `Clc1cc2oc3ccc(Cl)c(Cl)c3c2cc1Cl`?
A: log10 Koa: 9.78; log10 vapour pressure (mmHg): -7.74; melting point: 210 °C

Q: Which results are given for `O=C(O)c1cccc([N+](=O)[O-])c1`?
A: melting point: 141 °C; ready biodegradability: not readily biodegradable

Q: For `CCOc1ccc(N=Nc2ccc(OCC)cc2)cc1`, which melting point is on record?
A: 162 °C

Q: Which boiling point does the source give for `Cc1ccc(Cl)c(Cl)c1` here?
A: 209 °C

Q: What about the log10 vapour pressure (mmHg) of the same compound?
A: -0.502

Q: What about the melting point of the same compound?
A: -15.2 °C

Q: For `C=C`, which boiling point is on record?
A: -104 °C

Q: And the log10 Henry constant (atm·m³/mol)?
A: -0.642

Q: What about the log10 Koa of the same compound?
A: 0.28

Q: And the log10 vapour pressure (mmHg)?
A: 4.72

Q: What about the melting point of the same compound?
A: -169 °C

Q: With `Cc1cc(O)ccc1Cl` as the compound, how does the boiling point read?
A: 235 °C

Q: What about the log10 vapour pressure (mmHg) of the same compound?
A: -1.3

Q: What about the melting point of the same compound?
A: 67 °C

Q: What about the ready biodegradability of the same compound?
A: readily biodegradable

Q: For `CC(=O)OC(c1ccccc1)C(Cl)(Cl)Cl` (stereo not drawn), which melting point is on record?
A: 87.5 °C

Q: Which results are given for `C#Cc1ccccc1`?
A: boiling point: 143 °C; log10 vapour pressure (mmHg): 0.314; melting point: -44.8 °C

Q: With `CCCc1ccccc1O` as the compound, how does the boiling point read?
A: 220 °C

Q: What about the log10 vapour pressure (mmHg) of the same compound?
A: -1.05

Q: What about the melting point of the same compound?
A: 7 °C

Q: Which boiling point does the source give for `CCCC(C)Cl` (stereo not drawn) here?
A: 99 °C

Q: And the log10 vapour pressure (mmHg)?
A: 1.69

Q: What about the melting point of the same compound?
A: -80 °C

Q: Which results are given for `Cc1ccc2c(c1)CCC(C)C2` (stereo not drawn)?
A: boiling point: 240 °C; melting point: 20 °C

Q: Which melting point does the source give for `CCN(Cc1ccncc1)C(=O)C(CO)c1ccccc1` (stereo not drawn) here?
A: 96.5 °C

Q: For `CNC(=O)Nc1ccc(Cl)c(Cl)c1`, which log10 Koc (L/kg) is on record?
A: 2.46

Q: Which boiling point does the source give for `c1ccc(COCc2ccccc2)cc1` here?
A: 298 °C

Q: What about the log10 vapour pressure (mmHg) of the same compound?
A: -2.99

Q: What about the melting point of the same compound?
A: 3.6 °C

Q: What about the ready biodegradability of the same compound?
A: not readily biodegradable

Q: Which boiling point does the source give for `CCOC(=O)CCCCCC(=O)OCC` here?
A: 254 °C

Q: What about the log10 vapour pressure (mmHg) of the same compound?
A: -2.51

Q: What about the melting point of the same compound?
A: -24 °C

Q: For `Clc1ccc2ccccc2c1`, which boiling point is on record?
A: 256 °C

Q: What about the log10 Henry constant (atm·m³/mol) of the same compound?
A: -3.49

Q: What about the log10 Koa of the same compound?
A: 5.8

Q: What about the log10 vapour pressure (mmHg) of the same compound?
A: -1.91

Q: And the melting point?
A: 61 °C

Q: Which boiling point does the source give for `C=Cc1ccccc1Br` here?
A: 209 °C

Q: What about the melting point of the same compound?
A: -52.5 °C

Q: For `CCC(C(=O)O)C(=O)O`, which melting point is on record?
A: 114 °C

Q: Which melting point does the source give for `C[C@@H]1CC[C@@]2(OC1)O[C@H]1C[C@H]3[C@@H]4CC[C@H]5C[C@@H](O)CC[C@]5(C)[C@H]4CC[C@]3(C)[C@H]1[C@@H]2C` here?
A: 197 °C

Q: Which boiling point does the source give for `C=CC(O)CCC` (stereo not drawn) here?
A: 134 °C

Q: With `CCOC(=O)CC(=O)c1ccccc1` as the compound, how does the log10 vapour pressure (mmHg) read?
A: -3.39

Q: Which log10 vapour pressure (mmHg) does the source give for `C=C(C)[C@@H]1CC=C(C)C(=O)C1` here?
A: -0.988

Q: With `CCCCCCCCCCCCCCCCCCCCCCO` as the compound, how does the melting point read?
A: 72.5 °C

Q: Which boiling point does the source give for `CCN(CC)CCN(CC)CC` here?
A: 192 °C

Q: For `CNC(=O)Oc1cccc2c1OC(C)(C)O2`, which log10 Koc (L/kg) is on record?
A: 2.75

Q: For `c1ccc2c(c1)ccc1ccc3ccccc3c12`, which melting point is on record?
A: 68 °C

Q: With `O=C(O)C(F)(F)C(F)(F)C(F)(F)C(F)(F)C(F)(F)C(F)(F)F` as the compound, how does the boiling point read?
A: 177 °C

Q: And the log10 vapour pressure (mmHg)?
A: -0.876

Q: Which boiling point does the source give for `CCCC(C)(C)CCC` here?
A: 135 °C

Q: Which boiling point does the source give for `FC(F)(F)F` here?
A: -128 °C

Q: And the log10 Henry constant (atm·m³/mol)?
A: 0.712

Q: What about the log10 Koa of the same compound?
A: -0.95

Q: And the log10 vapour pressure (mmHg)?
A: 5.24

Q: What about the melting point of the same compound?
A: -184 °C
